From patent publication US11312950B2, “3D synthetic tissue hydrogels” (University of Massachusetts, priority 2017, dated 2022)

Tests used:
hMSCs [1] = assay: Competitive binding assay: adhesion of hMSCs pre-treated with soluble peptides to a surface with the bone marrow peptide cocktail; format: cell-based, human; details: 30 minutes pretreatment; glass surface with bone marrow integrin-binding peptide cocktail; three donor hMSCs and hTERT MSCs; 2 hours
Protocol: Cells were seeded at 4000 cells per cm^2 in their normal growth medium after 30 minutes of pretreatment with individual peptides or the complete bone marrow cocktail. Bone marrow was dosed at a molar amount of […] of medium and the molar amount dosed for each peptide was as follows: GRGDSPCG (SEQ ID NO:8)at 600 pmol/mL, CGPHSRNGGGGGGRGDS (SEQ ID NO:14), and […] (SEQ ID NO:18) at 220 pmol/mL, CGP(GPP)5GFOGER(GPP)5 (SEQ ID NO:15), CGGSVVYGLR (SEQ ID NO:13), and GPRGGC (SEQ ID NO:2)at 160 pmol/mL, CSVTCG (SEQ ID NO:4) and […] (SEQ ID NO:5) at 100 pmol/mL, GCGDGEA (SEQ ID NO:1), CSRARKQAASIKVAVADR (SEQ ID NO:3), GCKQLREQ (SEQ ID NO:6), and CGGAEIDGIEL (SEQ ID NO:16) at 60 pmol/mL, and GCDPGYIGSR (SEQ ID NO:7) at 40 pmol/mL. Cells were imaged cells beginning 10 minutes after seeding in an environment controlled Zeiss Axio Observer Z1 microscope (Carl Zeiss) using an AxioCam MRm camera and an EC Plan-Neofluar 20× 0.4 NA air objective. Images were taken using Zen (Carl Zeiss) at five-minute intervals for 2 hours and cell areas were traced in ImageJ (National Institutes of Health).

MDA-MB-231 cells = assay: MDA-MB-231 spheroid growth in hydrogels with one MMP degradable crosslinker; format: cell-based, human; details: spheroid size ratio
Protocol: Cytodex1 microcarrier beads (Sigma) were swollen in sterile IX PBS (1 g beads/50 mL PBS) and autoclaved for 30 minute at 121° C. Flasks were coated with poly (2-hydroxyethy methacrylate) suspended in ethanol at 20 mg/mL and allowed to evaporate in a biosafety cabinet for 1 hour to make they non-adherent. hMSCs were seeded at 10-50 cells/bead in non-adherent flasks at a 0.1 mL of beads/mL of media. The flask was shaken every 1 hour for 4 hours to ensure coating unto beads. Cells were allowed to grow on beads for 72 hours before seeding into hydrogels. Breast cancer cells were suspended in 4° C., poly(N-isopropylacryamide)-poly(ethylene glycol) (pNIPAAM-PEG, Cosmo Bio) reconstituted in cell culture medium at a density of 167,000 cells/mL of MDA-MB-231s. Gelation occurred after 5 min at 37° C., and gels were swollen in cell culture medium and grown into spheroids for 14 days. pNIPAAm gels were dissolved in cold serum-free DMEM (1% pen/strep) and spheroids transferred to conical tubes placed in ice so that spheroids would settle to the bottom. The supernatant was removed and the spheroids were re-suspended in PEG-maleimide solution. A ratio of 9 3D hydrogels were made for every 150 μL of pNIPAAM-PEG. Hydrogels were prepared with 4-arm PEG-maleimide at a 20 wt % cross-linked at a 1:1 molar ratio with 50% 1.5 K linear PEG-dithiol and 50% of each individual MMP degradable peptide sequence (FIGS. 13A-13C). […]

hMSCs [2] = assay: Outgrowth of hMSCs on beads in hydrogels made with a single MMP degradable crosslinker; format: cell-based, human; details: versus control, non-degradable crosslinker
Protocol: Cytodex1 microcarrier beads (Sigma) were swollen in sterile IX PBS (1 g beads/50 mL PBS) and autoclaved for 30 minute at 121° C. Flasks were coated with poly (2-hydroxyethy methacrylate) suspended in ethanol at 20 mg/mL and allowed to evaporate in a biosafety cabinet for 1 hour to make they non-adherent. hMSCs were seeded at 10-50 cells/bead in non-adherent flasks at a 0.1 mL of beads/mL of media. The flask was shaken every 1 hour for 4 hours to ensure coating unto beads. Cells were allowed to grow on beads for 72 hours before seeding into hydrogels. Breast cancer cells were suspended in 4° C., poly(N-isopropylacryamide)-poly(ethylene glycol) (pNIPAAM-PEG, Cosmo Bio) reconstituted in cell culture medium at a density of 167,000 cells/mL of MDA-MB-231s. Gelation occurred after 5 min at 37° C., and gels were swollen in cell culture medium and grown into spheroids for 14 days. pNIPAAm gels were dissolved in cold serum-free DMEM (1% pen/strep) and spheroids transferred to conical tubes placed in ice so that spheroids would settle to the bottom. The supernatant was removed and the spheroids were re-suspended in PEG-maleimide solution. A ratio of 9 3D hydrogels were made for every 150 μL of pNIPAAM-PEG. Hydrogels were prepared with 4-arm PEG-maleimide at a 20 wt % cross-linked at a 1:1 molar ratio with 50% 1.5 K linear PEG-dithiol and 50% of each individual MMP degradable peptide sequence (FIGS. 13A-13C). Gels were imaged at days 1 and 3 and all image analysis was performed in ImageJ (National Institutes of Health).

myofibroblasts = details: cited from earlier work
chick arotic cells = details: cited from earlier work

Substance	cell adhesion (cell area) after pre-treatment with soluble peptide (hMSCs [1])	degradation of crosslinked gel by MDA-MB-231 spheroids (MDA-MB-231 cells)	hMSC cell branching into hydrogel (maximum branch length per bead) (hMSCs [2])	ability of MMP peptide to degrade (myofibroblasts)	ability of MMP peptide to degrade (chick arotic cells)
CGGAEIDGIEL [tenascin C]	not significantly bound	–	–	–	–
CGP(GPP)5GFOGER(GPP)5 (CGPGPPGPPGPPGPPGPPGFGERGPPGPPGPPGPPGPP) [collagen I]	not significantly bound	–	–	–	–
GCRDGPLGLWARDRCG [MMP-13 crosslinker, di-functional MMP degradable crosslinker peptide designed for MMP 13 (Collagenase-3)]	–	degradation in the MMP-13 crosslinked gel was observed	No significant hMSC cell branching	–	–
GCRDRPFSMIMGDRCG [MMP-3 crosslinker, di-functional MMP degradable crosslinker peptide designed for MMP 3 (Stromelysin-1)]	–	again not with the MMP 2 and 3 peptides	No significant hMSC cell branching	ability for these MMP peptides to degrade has been shown	–
GCRDSGESPAYYTADRCG [MMP-2 crosslinker, di-functional MMP degradable crosslinker peptide designed for MMP 2 (Gelatinase A)]	–	again not with the MMP 2 and 3 peptides	No significant hMSC cell branching	–	ability for these MMP peptides to degrade has been shown
